{
  "source": "paper PMC6182140",
  "about": "(Nucleic Acids Research, 2018)",
  "molecules": {"B1": {"name": "pol η: human recombinant translesion synthesis polymerase η, N-terminal His-tagged (protein, UniProt Q9Y253 1-713, looked up)", "DNA polymerase eta": "MATGQDRVVALVDMDCFFVQVEQRQNPHLRNKPCAVVQYKSWKGGGIIAVSYEARAFGVTRSMWADDAKKLCPDLLLAQVRESRGKANLTKYREASVEVMEIMSRFAVIERASIDEAYVDLTSAVQERLQKLQGQPISADLLPSTYIEGLPQGPTTAEETVQKEGMRKQGLFQWLDSLQIDNLTSPDLQLTVGAVIVEEMRAAIERETGFQCSAGISHNKVLAKLACGLNKPNRQTLVSHGSVPQLFSQMPIRKIRSLGGKLGASVIEILGIEYMGELTQFTESQLQSHFGEKNGSWLYAMCRGIEHDPVKPRQLPKTIGCSKNFPGKTALATREQVQWWLLQLAQELEERLTKDRNDNDRVATQLVVSIRVQGDKRLSSLRRCCALTRYDAHKMSHDAFTVIKNCNTSGIQTEWSPPLTMLFLCATKFSASAPSSSTDITSFLSSDPSSLPKVPVTSSEAKTQGSGPAVTATKKATTSLESFFQKAAERQKVKEASLSSLTAPTQAPMSNSPSKPSLPFQTSQSTGTEPFFKQKSLLLKQKQLNNSSVSSPQQNPWSNCKALPNSLPTEYPGCVPVCEGVSKLEESSKATPAEMDLAHNSQSMHASSASKSVLEVTQKATPNPSLLAAEDQVPCEKCGSLVPVWDMPEHMDYHFALELQKSFLQPHSSNPQVVSAVSHQGKRNPKSPLACTNKRPRPEGMQTLESFFKPLTH", "modifications": "N-terminal His tag", "notes": "human recombinant translesion synthesis polymerase η, N-terminal His-tagged"}},
  "key": {"PCNA (Homo sapiens) [1]": {"target": "PCNA (Homo sapiens) (UniProt P12004)", "sequence (P12004 whole entry)": "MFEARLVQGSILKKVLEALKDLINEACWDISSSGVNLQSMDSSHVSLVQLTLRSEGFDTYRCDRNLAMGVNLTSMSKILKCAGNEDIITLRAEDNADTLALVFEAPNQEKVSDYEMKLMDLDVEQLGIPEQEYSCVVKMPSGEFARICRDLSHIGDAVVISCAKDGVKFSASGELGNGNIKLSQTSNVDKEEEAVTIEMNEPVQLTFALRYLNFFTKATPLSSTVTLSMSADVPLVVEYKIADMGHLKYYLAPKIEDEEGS", "assay": "ITC", "details": "cited from earlier work"}, "PCNA (Homo sapiens) [2]": {"target": "PCNA (Homo sapiens) (UniProt P12004)", "assay": "SPR", "details": "cited from earlier work"}, "pol η–PCNA holoenzyme [3]": {"test_system": "pol η–PCNA holoenzyme", "assay": "TLS time course of pol η on cisPt(GG) template", "assay_type": "biochemical, human", "details": "cisPt(GG) template 10 nM, pol η 40 nM; p15 with equimolar PCNA (p15), 10-fold excess PCNA (PCNA), or pol η alone; pH 8, 37°C", "method": "(§1) The 24-mer template oligonucleotide containing the cis-PtGG adduct was a kind gift from S.J. Sturla (ETH, Zürich) and was prepared and purified as described previously (Nilforoushan, 2015). All other DNA oligonucleotides, all HPLC purified, were synthesized by Biomers.net (Germany). The 18mer primer oligonucleotide was 5′-labeled with carboxyfluorescin (FAM) group. The labeled primer was mixed to the complementary template oligonucleotide at 1:1 (M/M) ratio in the presence of 150 mM Hepes–KOH pH 7.4, 500 mM KCl, 10 mM MgCl2, 250 mM NH4Ac, heated at 95°C for 5 min and then slowly cooled at room temperature.\npJM879 ([33]), expressing N-terminal His-tagged human pol η, was a kind gift from R. Woodgate (NIH, USA). Human recombinant pol η was expressed and purified with a modified protocol: BL21 DE3 competent E. coli cells were transformed with pJM879. Plates containing […] kanamycin were used to identify kanamycin-resistant colonies that were picked and grown overnight at 37°C. […] Transformed E. coli cells were used to inoculate a 50 ml starter culture. After overnight growth at 37°C, 12 ml of the starter culture were put into 1 l of LB medium (containing […] kanamycin). After 6 h growth at 37°C, cells were harvested by centrifugation and pellet frozen at –80°C. […]"}, "pol η–PCNA holoenzyme [4]": {"test_system": "pol η–PCNA holoenzyme", "assay": "DNA synthesis by pol η on undamaged template", "assay_type": "biochemical, human", "method": "as §1\npJM879 ([33]), expressing N-terminal His-tagged human pol η, was a kind gift from R. Woodgate (NIH, USA). Human recombinant pol η was expressed and purified with a modified protocol: BL21 DE3 competent E. coli cells were transformed with pJM879. Plates containing […] kanamycin were used to identify kanamycin-resistant colonies that were picked and grown overnight at 37°C. […] Transformed E. coli cells were used to inoculate a 50 ml starter culture. After overnight growth at 37°C, 12 ml of the starter culture were put into 1 l of LB medium (containing […] kanamycin). After 6 h growth at 37°C, cells were harvested by centrifugation and pellet frozen at –80°C. The pellet was resuspended in 40ml of lysis buffer (50mM Tris–HCl pH 7.5, 0.3 M NaCl, 20 mM imidazole, 10% glycerol, 10 mM b-mercaptoethanol [BME], 1× lysozime (Eurobio, Courtaboeuf, France), 1× ethylenediaminetetraacetic acid [EDTA]-free protease inhibitor ([…]™ Protease Inhibitor Cocktail Tablets, Sigma-Aldrich), 1 mM phenylmethane sulfonyl fluoride [PMSF] and lysed through sonication. After ultracentrifugation at 98 000g at 4°C for 1.5 h, the supernatant was loaded onto a 1-ml Ni-NTA column (HisTrap™ HP, GE Healthcare). Column washing was performed with 3 ml of W1 buffer ([…] pH 7.5, 1 M NaCl, 20 mM imidazole, 10% glycerol, 10 mM BME) followed by 3 ml of W2 buffer (10 mM Na-phosphate pH 7.7, 0.3 M NaCl, 20 mM imidazole, 10% glycerol, 10 mM BME). Elution of target protein was obtained using buffer H (10 mM Na-phosphate pH 7.7, 0.3 M NaCl, 200 mM imidazole, 10% glycerol, 10 mM BME). The pol η positive fractions (0.5 ml each) were pooled and overnight dialyzed with buffer M (20 mM Na-phosphate pH 7.3, 0.1 M NaCl, 10% glycerol, 10 mM BME), in dialysis cassette (Slide-A-Lyzer™ Dialysis Cassettes, 3.5K MWCO, Thermo Scientific). Pool was then loaded onto a 1-ml cation exchanger column (HiTrap SP, Pharmacia Biotech). Buffer N (20 mM Na-phosphate pH 7.3, 0.5 M NaCl, 10% glycerol, 10 mM BME) was used to elute pol η with a linear gradient. The pol ηpositive fractions (0.5 ml each) were aliquoted and stored at –80°C in 20% final glycerol.\n(§2) All reactions were performed in a 10 μl final volume using the following conditions: 40 mM Tris pH 8, 1 mM dithiotreitol (DTT), 0.25 mg/ml bovine serum albumin (BSA), 10 mM Mg^2+ (unless otherwise stated in the figures or figure legends). Reactions were incubated at 37°C for 15 min, unless otherwise stated. Reaction mixtures were stopped by addition of standard denaturing gel loading buffer (95% formamide, […], xylene cyanol and bromophenol blue), heated at 95°C for 5 min and loaded on a 7-M urea 12% polyacrylamide (PA) gel.\nFigure 4. […] Reactants at the indicated concentrations were incubated at 37°C for 30 s and the reaction was stopped by addition of standard denaturing gel loading buffer."}, "pol η–PCNA holoenzyme [5]": {"test_system": "pol η–PCNA holoenzyme", "assay": "TLS by pol η on cis-Pt template in the presence of RF-C", "assay_type": "biochemical, human", "details": "50 µM dNTPs, 0.5 mM ATP, 150 nM ScRF-C, 400 nM pol η, 400 nM p15, 50 nM PCNA", "method": "Recombinant ScRF-C was obtained as a kind gift from the laboratory of Alessandro Costa (Francis Crick Institute), and was prepared following the procedure described in ([34]).\nas §2\n18/24mer primer-template substrate bearing a cis-Pt adduct at the two guanines at positions +1\nand +2 of the template strand, in the presence of RF-C and in the absence (lanes 10-13) or in the\nReactant concentrations were: 50\n(1 picture or pasted object on this page, not shown here)"}, "pol η": {"test_system": "pol η", "assay": "DNA synthesis by pol η without PCNA, undamaged control template", "assay_type": "biochemical, human", "details": "pol η 70 nM, p15 400 nM, no PCNA, control template 10 nM", "method": "pJM879 ([33]), expressing N-terminal His-tagged human pol η, was a kind gift from R. Woodgate (NIH, USA). Human recombinant pol η was expressed and purified with a modified protocol: BL21 DE3 competent E. coli cells were transformed with pJM879. Plates containing […] kanamycin were used to identify kanamycin-resistant colonies that were picked and grown overnight at 37°C. DNA purified from bacterial cultures using NucleoSpin® Plasmid (NoLid) kit ([…]-NAGEL, Düren, Germany) was digested to confirm the presence of the gene expressing pol η. Transformed E. coli cells were used to inoculate a 50 ml starter culture. After overnight growth at 37°C, 12 ml of the starter culture were put into 1 l of LB medium (containing […] kanamycin). After 6 h growth at 37°C, cells were harvested by centrifugation and pellet frozen at –80°C. […]"}, "DNA": {"target": "DNA", "details": "cited from earlier work", "method": "(§3) Thus, each dNTP insertion step is carried out by a combination of pol η alone and pol η holoenzyme. However, if ..."}, "PCNA": {"target": "PCNA", "details": "read-out: Kd pol η–PCNA (SPR); surface plasmon resonance at 25°C; cited from earlier work", "method": "as §3"}},
  "note": "Read-outs that look alike come from different tables or passages of the source.",
  "data": [
    {"molecule": "p15PAF (from UniProt Q15004)", "values": [
      {"measurement": "Kd", "setting": "PCNA (Homo sapiens) [1]", "result": 1100, "unit": "nM"}
    ]},
    {"molecule": "pol η (from UniProt Q9Y253)", "values": [
      {"measurement": "Kd", "setting": "PCNA (Homo sapiens) [2]", "result": 400, "unit": "nM"}
    ]},
    {"molecule": "p15: PCNA–associated factor, oncogenic 11 kDa intrinsically disordered protein", "values": [
      {"measurement": "effect on lesion bypass / nucleotide incorporation", "setting": "pol η–PCNA holoenzyme [3]", "result": "reduced nucleotide incorporation at +2 and +3 positions"},
      {"measurement": "effect on nucleotide incorporation at initial time point", "setting": "pol η–PCNA holoenzyme [4]; undamaged template 10 nM, with PCNA and p15 equimolar, lane 2, 37°C, pH 8", "result": "reduced nucleotide incorporation at position +2"},
      {"measurement": "effect on synthesis of full-length product", "setting": "pol η–PCNA holoenzyme [4]; undamaged template 10 nM, with PCNA and p15 equimolar, lanes 3–5, 37°C, pH 8", "result": "slowed down the synthesis of the full-length product"},
      {"measurement": "comparison of pol η inhibition by p15 and p15^41–72 in conjunction with PCNA", "setting": "pol η–PCNA holoenzyme [4]; undamaged template, 37°C for 30 s", "result": "able to reduce pol η synthesis at comparable levels"},
      {"measurement": "effect on DNA synthesis in combination with PCNA", "setting": "pol η–PCNA holoenzyme [4]; undamaged template, 37°C for 30 s, with respect to pol η and PCNA alone, synthesis stopped at +1 and +2", "result": "reduction of DNA synthesis"},
      {"measurement": "effect on TLS in the presence of RF-C", "setting": "pol η–PCNA holoenzyme [5]; 40 nM cis-Pt 18/24mer", "result": "delays TLS by pol η–PCNA across a cis-Pt lesion even in the presence of RF-C"},
      {"measurement": "accumulated products in the presence of RF-C", "setting": "pol η–PCNA holoenzyme [5]; p15 in combination with PCNA", "result": "accumulation of +1 and +2 products"},
      {"measurement": "effect of p15 alone on pol η activity", "setting": "pol η", "result": "does not affect the activity of the polymerase"},
      {"measurement": "Kd", "setting": "DNA; read-out: affinity of p15 for DNA", "result": 5000, "unit": "nM"}
    ]},
    {"molecule": "B1", "values": [
      {"measurement": "effect on lesion bypass / nucleotide incorporation", "setting": "pol η–PCNA holoenzyme [3]", "result": "able to complete the bypass"},
      {"measurement": "processivity", "setting": "pol η–PCNA holoenzyme [4]; undamaged template 10 nM, pol η alone or with PCNA, 37°C, pH 8", "result": "equal processivity"},
      {"measurement": "Kd", "setting": "DNA; read-out: affinity of pol η for DNA", "result": 30, "unit": "nM"},
      {"measurement": "Kd", "setting": "PCNA", "result": 400, "unit": "nM"}
    ]}
  ]
}
